Here are results for 38 molecules from US20110003689A1, “USE OF POLYMERIC GUANIDINE DERIVATIVES FOR THE CONTROL OF UNWANTED MICROORGANISMS IN CROP PROTECTION” (AKA TECHNOLOGY GMBH, priority 2007, published 2011).

Experiment [1] relates to Alternaria solani. The experiment in a line: Alternaria test (tomato)/protective, combinations (Example M). It is filed as in vivo.
For experiment [2], the system named is Pyrenophora teres. The experiment in a line: Pyrenophora teres test (barley)/curative (Example U). It is filed as in vivo.
Experiment [3] concerns Plasmopara viticola. Kind of experiment: Plasmopara test (grapevine)/protective, combinations (Example K). It is filed as in vivo.
Experiment [4] has as its system Botrytis cinerea. The experiment in a line: Botrytis test (bean)/protective (Example N).
Experimental: After the spray coating has dried on, 2 small pieces of agar colonized by Botrytis cinerea are placed onto each leaf. The inoculated plants are placed in a dark chamber at about 20° C. and 100% relative atmospheric humidity. 2 days after the inoculation, the size of the infected areas on the leaves is evaluated.
The test system of experiment [5] is Puccinia triticina. The experiment in a line: Puccinia triticina test (wheat)/curative (Example T). It counts as in vivo.
Experiment [6] relates to Venturia inaequalis. The experiment in a line: Venturia test (apple)/protective, combinations (Example L).
Experimental: After the spray coating has dried on, the plants are inoculated with an aqueous conidia suspension of the apple scab pathogen Venturia inaequalis and then remain in an incubation cabin at about 20° C. and 100% relative atmospheric humidity for 1 day. The plants are then placed in a greenhouse at about 21° C. and a relative atmospheric humidity of about 90%. Evaluation is carried out 10 days after inoculation.
In experiment [7] the test system is Fusarium graminearum. It counts as in vivo. The following applies: 500 ppm.
In experiment [8] the test system is Blumeria graminis f. sp. hordei. The experiment in a line: Blumeria graminis test (barley)/curative (Example P). It is filed as in vivo. The following applies: 168 h, read-out: Efficacy in % found.
Experiment [9] has as its system Phytophthora infestans. It is filed as in vivo.
Experiment [10] deals with Blumeria graminis f. sp. hordei. The experiment in a line: Blumeria graminis test (barley)/protective (Example O). The following applies: 125 ppm. It is filed as in vivo. The procedure:
[table] […] Evaluation is carried out 7 days after inoculation.

The test system of experiment [11] is Leptosphaeria nodorum. The experiment in a line: Leptosphaeria nodorum test (wheat)/protective (Example Q). It counts as in vivo. To be noted: 62.5 ppm.
Experiment [12] concerns Leptosphaeria nodorum. Kind of experiment: Leptosphaeria nodorum test (wheat)/curative (Example R). It is filed as in vivo. To be noted: 62.5 ppm.
The mark [13] stands for this setting: Alternaria solani, 72 h, read-out: Efficacy in % found.

Counter-ions that a name gives are not always drawn. Like-named read-outs stand apart in the source and are kept apart here.

Consider `OC(Cc1ccccc1Cl)(Cn1nc[nH]c1=S)C1(Cl)CC1` (centres unmarked) [(B-41) prothioconazole, prothioconazole], for which, in [1] (setting [13]), the pest or weed control at 5 ppm worked out at 1%. Besides, the “Efficacy in % found” value in [2] (125 ppm) was 78%.
As to `CCNC(=O)NC(=O)/C(C#N)=N/OC` [(G-73) cymoxanil, cymoxanil], the “Efficacy in % found” value in [3] (50 ppm) turned out to be 0%.
For the molecule `CC1(C(=O)Nc2ccc(O)c(Cl)c2Cl)CCCCC1` [(B-16) fenhexamid, fenhexamid], in [4] (2.5 ppm), the “Efficacy in % found” value was found to be 0%.
In the case of `CCO[PH](=O)O` [(G-86) fosetyl-Al, fosetyl-Al], in experiment [3] (200 ppm), the “Efficacy in % found” value is listed as 0%.
As for `C=CCOC(Cn1ccnc1)c1ccc(Cl)cc1Cl` (centres unmarked) [(B-26) imazalil, imazalil], in [5] (500 ppm), the “Efficacy in % found” value is on record as 83%.
Regarding `O=C(Nc1ccccc1-c1ccc(Cl)cc1)c1cccnc1Cl` [(C-3) boscalid, boscalid], in [6] (5 ppm), the “Efficacy in % found” value is recorded as 36%.
On to `N#Cc1c[nH]cc1-c1cccc2c1OC(F)(F)O2` [(G-60) fludioxonil, fludioxonil], for which the “Efficacy in % found” value in [2] (250 ppm) was 78%.
For the molecule `Cc1cc(C)nc(Nc2ccccc2)n1` [(G-10) pyrimethanil, pyrimethanil], the “Efficacy in % found” value in experiment [4] (12.5 ppm) is listed as 13%.
Take `CCCN(CCOc1c(Cl)cc(Cl)cc1Cl)C(=O)n1ccnc1` [(B-39) prochloraz, prochloraz]: the “Efficacy in % found” value in [7] came to 63%.
In the case of `CO/N=C(/C1=NOCCO1)c1ccccc1Oc1ncnc(Oc2ccccc2Cl)c1F` [(D-8) fluoxastrobin, fluoxastrobin], in [1] (setting [13]), the pest or weed control at 5 ppm turned out to be 35%. For the same molecule, in experiment [8] (500 ppm), the pest or weed control at 500 ppm is 78%.
Turning to `Cc1ccc(C(C)NC(=O)[C@@H](NC(=O)OC(C)C)C(C)C)cc1` (some centres unmarked) [(G-18) iprovalicarb, iprovalicarb], the entries for the “Efficacy in % found” value in [9] (2 ppm) and in experiment [3] (0.5 ppm) were 30% and 0%, respectively.
On to `CON=C(C(=O)OC)c1ccccc1CON=C(C)c1cccc(C(F)(F)F)c1` [(D-15) trifloxystrobin, trifloxystrobin], for which the pest or weed control at 5 ppm in experiment [1] (setting [13]) amounted to 40%. Moreover, the “Efficacy in % found” value in [5] (500 ppm) is reported as 83%.
With `CC(C)CC(C)c1sccc1NC(=O)c1cn(C)nc1C(F)(F)F` (centres unmarked) [(C-12) penthiopyrad, penthiopyrad], the pest or weed control at 250 ppm in [8] was 88%. In [6] (5 ppm), the “Efficacy in % found” value was determined as 60%.
For the molecule `CCCCCCCCCCCCCN1CC(C)OC(C)C1` (centres unmarked) [(B-52) tridemorph, tridemorph], the pest or weed control at 250 ppm in experiment [8] turned out to be 75%.
Regarding `OP(O)O` [(G-101) phosphorous acid, phosphorous acid], the “Efficacy in % found” value in [3] (400 ppm) is given as 30%.
`O=[N+]([O-])c1cc(C(F)(F)F)c(Cl)c([N+](=O)[O-])c1Nc1ncc(C(F)(F)F)cc1Cl` [(G-64) fluazinam, fluazinam]: the “Efficacy in % found” value in experiment [3] (5 ppm) came out at 0%.
Turning to `Cn1cc(C(=O)Nc2ccccc2OC(F)(F)C(F)F)c(C(F)F)n1` [(C-19), 3-(difluoromethyl)-1-methyl-N-[2-(1,1,2,2-tetrafluoroethoxy)phenyl]-1H-pyrazole-4-carboxamide], the entries for the “Efficacy in % found” value in [10] and in experiment [6] (5 ppm) were 78% and 35%, respectively.
On to `O=C(NCCc1ncc(C(F)(F)F)cc1Cl)c1ccccc1C(F)(F)F` [(C-6) fluopyram, N-{2-[3-chloro-5-(trifluoromethyl)pyridin-2-yl]ethyl}-2-(trifluoromethyl)benzamide], for which the pest or weed control at 2.5 ppm in experiment [1] (setting [13]) is 23%.
Take `CC(C)[C@H](NC(=O)O)C(=O)N[C@H](C)c1nc2ccc(F)cc2s1` [(G-15) benthiavalicarb, benthiavalicarb]: the “Efficacy in % found” value in [9] (0.5 ppm) is 23%.
With `N#Cc1c(Cl)c(Cl)c(Cl)c(C#N)c1Cl` [(F-4) chlorothalonil, chlorothalonil], the “Efficacy in % found” value in experiment [2] (1000 ppm) is recorded as 30%.
Regarding mancozeb [(F-20) mancozeb], the “Efficacy in % found” value in [9] (25 ppm) is recorded as 20%; in [3] (100 ppm), 5%; in experiment [1] (50 ppm), 31%.
For the molecule `CC(C)C1C2CCC1c1c(NC(=O)c3cn(C)nc3C(F)F)cccc12` (centres unmarked) [(C-41) isopyrazam, 3-(difluoromethyl)-1-methyl-N-[1,2,3,4-tetrahydro-9-(1-methylethyl)-1,4-methanonaphthalen-5-yl]-1H-pyrazole-4-carboxamide], the pest or weed control at 500 ppm in experiment [8] is 78%.
For the molecule `CC1COC(Cn2cncn2)(c2ccc(Oc3ccc(Cl)cc3)cc2Cl)O1` (centres unmarked) [(B-7) difenoconazole, difenoconazole], the pest or weed control at 250 ppm in experiment [8] was found to be 78%.
Take `COC(=O)N(OC)c1ccccc1COc1ccn(-c2ccc(Cl)cc2)n1` [(D-13) pyraclostrobin, pyraclostrobin]: the pest or weed control at 5 ppm in experiment [1] (setting [13]) came to 49%. Moreover, the “Efficacy in % found” value in experiment [11] came to 94%.
Turning to `CO/C=C(/C(=O)OC)c1ccccc1Oc1cc(Oc2ccccc2C#N)ncn1` [(D-4) azoxystrobin, azoxystrobin], the “Efficacy in % found” value in [12] was 60%.
In the case of `O=C(NCc1ncc(C(F)(F)F)cc1Cl)c1c(Cl)cccc1Cl` [(E-6) fluopicolide, fluopicolide], in [9] (2 ppm), the “Efficacy in % found” value was 9%.
For `Cc1nn(C)c(F)c1C(=O)Nc1ccccc1C(C)CC(C)C` (centres unmarked) [(C-14), N-[2-(1,3-dimethylbutyl)phenyl]-5-fluoro-1,3-dimethyl-1H-pyrazole-4-carboxamide], in experiment [1] (setting [13]), the pest or weed control at 2.5 ppm came to 0%. Besides, the pest or weed control at 250 ppm in [8] came to 67%.
Turning to `COCC(=O)N(c1c(C)cccc1C)[C@H](C)C(=O)OC` [(G-55) metalaxyl-M, metalaxyl-M], in experiment [9] (2.5 ppm), the “Efficacy in % found” value is on record as 10%.
For `CC(C)(C)C(O)C(Oc1ccc(-c2ccccc2)cc1)n1cncn1` (centres unmarked) [(B-3) bitertanol, bitertanol], the pest or weed control at 500 ppm in [8] (500 ppm) turned out to be 63%. Besides, the “Efficacy in % found” value in experiment [6] (2.5 ppm) came out at 63%.
As for `CCCN(CC)CC1COC2(CCC(C(C)(C)C)CC2)O1` (centres unmarked) [(B-46) spiroxamine, spiroxamine], in experiment [5] (1000 ppm), the “Efficacy in % found” value turned out to be 40%.
In the case of `CC(C)(C)C(O)(CCc1ccc(Cl)cc1)Cn1cncn1` (centres unmarked) [(B-47) tebuconazole, tebuconazole], in experiment [1] (setting [13]), the pest or weed control at 5 ppm came out at 29%. Besides, the “Efficacy in % found” value in experiment [2] (250 ppm) is listed as 60%.
Regarding `Cn1cc(C(=O)Nc2ccc(F)cc2-c2ccc(Cl)c(Cl)c2)c(C(F)F)n1` [(C-2) bixafen, N-(3′,4′-dichloro-5-fluoro-1,1′-biphenyl-2-yl)-3-(difluoromethyl)-1-methyl-1H-pyrazole-4-carboxamide], the pest or weed control at 1.25 ppm in [1] (Alternaria solani, 72 h, 1.25 ppm, read-out: Efficacy in % found) was found to be 49%. Further, in experiment [8] (500 ppm), the pest or weed control at 500 ppm is 63%.
Consider `CC(C)NC(=O)N1CC(=O)N(c2cc(Cl)cc(Cl)c2)C1=O` [(G-31) iprodione, iprodione], for which, in experiment [4] (12.5 ppm), the “Efficacy in % found” value was 11%.
With `COc1ccc(C(=CC(=O)N2CCOCC2)c2ccc(Cl)cc2)cc1OC` [(G-16) dimethomorph, dimethomorph], the “Efficacy in % found” value in experiment [3] (1 ppm) worked out at 0%.
Turning to propineb [(F-24) propineb], the “Efficacy in % found” value in [9] (100 ppm) was 15%; in experiment [3] (100 ppm), 51%.
With `CSC1=N[C@@](C)(c2ccccc2)C(=O)N1Nc1ccccc1` [(D-2) fenamidone, fenamidone], the “Efficacy in % found” value in [3] (1 ppm) stood at 19%.
As for `CCCOC(=O)NCCCN(C)C` [(G-35) propamocarb hydrochloride, propamocarb hydrochloride], the “Efficacy in % found” value in experiment [9] (100 ppm) and in [3] (400 ppm) was 0% each time.
`Fc1ccc([C@]2(Cn3cncn3)O[C@H]2c2ccccc2Cl)cc1` (racemic) [(B-12) epoxiconazole, epoxiconazole]: in experiment [2] (500 ppm), the “Efficacy in % found” value worked out at 78%.
